Results on seven compounds are retold here after patent US11013235B2 (priority 2015, dated 2021).

Common to all, as to type: in vivo
One test deals with Phytophthora parasitica. The test can be described thus: Control of Phytophthora parasitica disease in tobacco (Pp-Nt). The settings on record: 1 μM spraying every 24 hours for one week, water control 91.
A further test concerns Radopholus similis. The test can be described thus: Nematode control, nodules per plant: Radopholus similis. The settings on record: 1 μM foliar application every 5 days, evaluation 35 days after, control 45. The essentials: (§1)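 Compounds in ethanol, diluted in water to 1 μM, sprayed on leaves only every 5 days. Ten plants per treatment; nodules per plant counted at 35 days.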

In a further test the test system is Meloidogyne incognita. The test can be described thus: Nematode control, nodules per plant: Meloidogyne incognita. The settings on record: 1 μM foliar application every 5 days, evaluation 35 days after, control 34. The essentials:
as §1

In test [1] the test system is Rhizoctonia solani. The test can be described thus: Control of Rhizoctonia solani disease in tobacco (Rs-Nt). The settings on record: 1 μM spraying every 24 hours for one week, water control 87.
The subject of test [2] is Botrytis cinerea. The test can be described thus: Control of Botrytis cinerea disease in tobacco (Bc-Nt). The settings on record: 1 μM spraying every 24 hours for one week, water control 6.7. The essentials: (§2)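 Plants were inoculated first, then sprayed with compound at 1 μM every 24 hours for one week, with water-sprayed plants as controls and fifty plants per treatment. Read-outs were plant mortality rate for Nocardia, percentage of leaves with symptoms for Alternaria, and lesion diameter for Botrytis.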

The subject of test [3] is Candidatus 'Liberibacter asiaticus'. The settings on record: spraying every 15 days, 12 months after treatment, Citrus sinensis with HLB.
Test [4] deals with Rhizoctonia solani. The test can be described thus: Control of Rhizoctonia solani disease in tomato (Rs-SI). The settings on record: 1 μM spraying every 24 hours for one week, water control 96.
Test [5] relates to Botrytis cinerea. The test can be described thus: Control of Botrytis cinerea disease in tomato (Bc-SI). The settings on record: 1 μM spraying every 24 hours for one week, water control 7.4. A digest of the protocol:
as §2

A further test has as its system Alternaria solani. The test can be described thus: Control of Alternaria solani disease in tomato (As-SI). The settings on record: 1 μM spraying every 24 hours for one week, water control 68. A digest of the protocol: as §2
The next test has as its system Nocardia sp. The test can be described thus: Control of Nocardia sp disease in tobacco (N-Nt). The settings on record: 1 μM spraying every 24 hours for one week, water control 58. A digest of the protocol:
as §2

Test [6] deals with Botrytis cinerea. The test can be described thus: Control of Botrytis cinerea disease in Arabidopsis (Bc-At). The settings on record: 1 μM spraying every 24 hours for one week, water control 8.7. The essentials: as §2
Another test has as its system Pratylenchus coffeae. The test can be described thus: Nematode control, nodules per plant: Pratylenchus coffeae. The settings on record: 1 μM foliar application every 5 days, evaluation 35 days after, control 42. A digest of the protocol:
as §1

SMILES strings stand for the structures. Read-outs that look alike come from different tables or passages of the source.

For the compound `O=C(c1cnc(N2CCN(C3CCCCC3)CC2)nc1)N1CC2CC(O)C(O)CC2C1` (stereo not shown) [IIIE, 2-{[2-(4-cyclohexylpiperazin-1-yl)pyrimidin-5-yl]carbonyl}-octahydro-1H-isoindole-5,6-diol], the “Pp-Nt: percentage of mortality” value with Phytophthora parasitica turned out to be 0%. The “Rs: number of nodules per plant” value with Radopholus similis came out at 0. Also, the “Mi: number of nodules per plant” value in the test with Meloidogyne incognita stood at 0. The “Rs-Nt: percentage of mortality” value in the test with Rhizoctonia solani [1] is on record as 0%. Further, the “Bc-Nt: mean of the diameter of the lesion” value (from here on “Bc-Nt: mean”) with Botrytis cinerea [2] was found to be 0.9 mm. The “Titers of the bacterium” value in test [3] (0.001 μM) is recorded as 657 copies per reaction; in test [3] (0.01 μM), 7 copies per reaction; in test [3] (1 μM), 0 copies per reaction; in test [3] (5 μM) it was 67 copies per reaction; in test [3] (10 μM) it was 8653 copies per reaction. For the same compound, the “Rs-SI: percentage of mortality” value in the test on Rhizoctonia solani [4] amounted to 0%. Also, the “Bc-SI: mean of the diameter of the lesion” value (“Bc-SI: mean” below) in the test on Botrytis cinerea [5] is recorded as 0.8 mm. In the test with Alternaria solani, the “As-SI: percentage of leaves with the disease symptoms” value (shortened to “As-SI: percentage of leaves”) is on record as 7%. Moreover, the “N-Nt: percentage of mortality” value in the test with Nocardia sp was determined as 0%. Further, the “Bc-At: mean of the diameter of the lesion” value (“Bc-At: mean” for short) in the test with Botrytis cinerea [6] amounted to 0.5 mm. The “Pc: number of nodules per plant” value in the test with Pratylenchus coffeae came out at 0.

Regarding `Cc1nc(N2CCN(C3CCCCC3)CC2)ncc1C(=O)N1CC2CC(O)C(O)CC2C1` (stereo not shown) [IIIF, 2-{[2-(4-cyclohexylpiperazin-1-yl)-4-methylpyrimidin-5-yl]carbonyl}-octahydro-1H-isoindole-5,6-diol], in the test with Phytophthora parasitica, the “Pp-Nt: percentage of mortality” value stood at 0%. Also, the “Rs: number of nodules per plant” value with Radopholus similis came out at 0. For the same compound, the “Mi: number of nodules per plant” value with Meloidogyne incognita was 0. Further, the “Rs-Nt: percentage of mortality” value in the test on Rhizoctonia solani [1] was 0%. The “Bc-Nt: mean” value with Botrytis cinerea [2] came out at 1.5 mm. For the same compound, the “Titers of the bacterium” value in test [3] (0.001 μM) is on record as 658 copies per reaction; in test [3] (0.01 μM) it was 5 copies per reaction; in test [3] (1 μM), 4 copies per reaction; in [3] (5 μM), 68 copies per reaction; in [3] (10 μM), 3654 copies per reaction. The “Rs-SI: percentage of mortality” value in the test with Rhizoctonia solani [4] came out at 1%. In the test on Botrytis cinerea [5], the “Bc-SI: mean” value is on record as 2.5 mm. Besides, the “As-SI: percentage of leaves” value in the test with Alternaria solani stood at 5%. The “N-Nt: percentage of mortality” value in the test on Nocardia sp is reported as 0%. For the same compound, the “Bc-At: mean” value in the test with Botrytis cinerea [6] came to 1.5 mm. Moreover, the “Pc: number of nodules per plant” value with Pratylenchus coffeae is recorded as 0.

As to `O=C(c1cnc(N2CCN(C3CCCC3)CC2)nc1)N1CC2CC(O)C(O)CC2C1` (stereo not shown) [IIIG, 2-{[2-(4-cyclopentylpiperazin-1-yl)pyrimidin-5-yl]carbonyl}-octahydro-1H-isoindole-5,6-diol], the “Pp-Nt: percentage of mortality” value in the test with Phytophthora parasitica was found to be 3%. Besides, in the test with Radopholus similis, the “Rs: number of nodules per plant” value is reported as 3. Besides, the “Mi: number of nodules per plant” value with Meloidogyne incognita came to 0. The “Rs-Nt: percentage of mortality” value in the test on Rhizoctonia solani [1] turned out to be 0%. Moreover, the “Bc-Nt: mean” value in the test on Botrytis cinerea [2] turned out to be 1.5 mm. In addition, the “Titers of the bacterium” value in test [3] (0.001 μM) worked out at 756 copies per reaction; in [3] (0.01 μM), 12 copies per reaction; in [3] (1 μM) it was 5 copies per reaction; in test [3] (5 μM), 76 copies per reaction; in [3] (10 μM) it was 9654 copies per reaction. The “Rs-SI: percentage of mortality” value in the test on Rhizoctonia solani [4] is recorded as 1%. Further, the “Bc-SI: mean” value in the test with Botrytis cinerea [5] came out at 0.8 mm. Besides, the “As-SI: percentage of leaves” value with Alternaria solani came out at 7%. Moreover, the “N-Nt: percentage of mortality” value with Nocardia sp stood at 0%. The “Bc-At: mean” value in the test with Botrytis cinerea [6] came out at 2.4 mm. Besides, the “Pc: number of nodules per plant” value in the test with Pratylenchus coffeae came to 0.

Turning to `Cc1nc(N2CCN(C3CCCC3)CC2)ncc1C(=O)N1CC2CC(O)C(O)CC2C1` (stereo not shown) [IIIH, 2-{[2-(4-cyclopentylpiperazin-1-yl)-4-methylpyrimidin-5-yl]carbonyl)-octahydro-1H-isoindole-5,6-diol], the “Pp-Nt: percentage of mortality” value in the test with Phytophthora parasitica worked out at 1%. In the test with Radopholus similis, the “Rs: number of nodules per plant” value was determined as 14. Besides, in the test with Meloidogyne incognita, the “Mi: number of nodules per plant” value stood at 2. Moreover, the “Rs-Nt: percentage of mortality” value in the test on Rhizoctonia solani [1] is 2%. The “Bc-Nt: mean” value in the test with Botrytis cinerea [2] amounted to 0.9 mm. Moreover, the “Titers of the bacterium” value in test [3] (0.001 μM) is 456 copies per reaction; in test [3] (0.01 μM), 15 copies per reaction; in [3] (1 μM), 6 copies per reaction; in test [3] (5 μM) it was 56 copies per reaction; in test [3] (10 μM) it was 3657 copies per reaction. For the same compound, the “Rs-SI: percentage of mortality” value in the test with Rhizoctonia solani [4] worked out at 3%. For the same compound, in the test on Botrytis cinerea [5], the “Bc-SI: mean” value is on record as 1.2 mm. Also, in the test on Alternaria solani, the “As-SI: percentage of leaves” value worked out at 1%. Besides, the “N-Nt: percentage of mortality” value in the test with Nocardia sp amounted to 1%. Moreover, the “Bc-At: mean” value in the test on Botrytis cinerea [6] turned out to be 0.7 mm. In the test on Pratylenchus coffeae, the “Pc: number of nodules per plant” value is listed as 16.

Take `O=C(c1cnc(N2CCNCC2)nc1)N1CC2CC(O)C(O)CC2C1` (stereo not shown) [IIII, 2-{[2-(piperazin-1-yl)pyrimidin-5-yl]carbonyl}-octahydro-1H-isoindole-5,6-diol]: the “Pp-Nt: percentage of mortality” value in the test on Phytophthora parasitica is given as 2%. Further, the “Rs: number of nodules per plant” value in the test on Radopholus similis amounted to 2. Further, in the test with Meloidogyne incognita, the “Mi: number of nodules per plant” value turned out to be 3. The “Rs-Nt: percentage of mortality” value with Rhizoctonia solani [1] is 3%. In addition, the “Bc-Nt: mean” value in the test with Botrytis cinerea [2] was determined as 0.3 mm. Besides, the “Titers of the bacterium” value in test [3] (0.001 μM) is recorded as 435 copies per reaction; in test [3] (0.01 μM), 9 copies per reaction; in test [3] (1 μM), 8 copies per reaction; in [3] (5 μM), 45 copies per reaction; in test [3] (10 μM), 8654 copies per reaction. In the test on Rhizoctonia solani [4], the “Rs-SI: percentage of mortality” value came to 2%. In addition, the “Bc-SI: mean” value in the test with Botrytis cinerea [5] is 0.8 mm. Moreover, the “As-SI: percentage of leaves” value in the test on Alternaria solani was 2%. In addition, the “N-Nt: percentage of mortality” value in the test on Nocardia sp is given as 1%. Moreover, in the test on Botrytis cinerea [6], the “Bc-At: mean” value turned out to be 1.2 mm. Further, in the test with Pratylenchus coffeae, the “Pc: number of nodules per plant” value is given as 12.

`Cc1nc(N2CCNCC2)ncc1C(=O)N1CC2CC(O)C(O)CC2C1` (stereo not shown) [IIIJ, 2-{[4-methyl-2-(piperazin-1-yl)pyrimidin-5-yl]carbonyl}-octahydro-1H-isoindole-5,6-diol]: the “Pp-Nt: percentage of mortality” value with Phytophthora parasitica amounted to 1%. In addition, the “Rs: number of nodules per plant” value in the test with Radopholus similis is reported as 12. Also, in the test on Meloidogyne incognita, the “Mi: number of nodules per plant” value amounted to 4. The “Rs-Nt: percentage of mortality” value with Rhizoctonia solani [1] is 4%. In addition, the “Bc-Nt: mean” value in the test with Botrytis cinerea [2] was determined as 2.0 mm. Besides, the “Titers of the bacterium” value was determined as 578 copies per reaction in [3] (0.001 μM); 0 copies per reaction in test [3] (0.01 μM); 7 copies per reaction in test [3] (1 μM); 578 copies per reaction in [3] (5 μM); 7546 copies per reaction in [3] (10 μM). In addition, the “Rs-SI: percentage of mortality” value in the test with Rhizoctonia solani [4] is 2%. The “Bc-SI: mean” value in the test with Botrytis cinerea [5] is on record as 1.6 mm. Besides, in the test with Alternaria solani, the “As-SI: percentage of leaves” value amounted to 3%. Also, the “N-Nt: percentage of mortality” value in the test with Nocardia sp came to 2%. The “Bc-At: mean” value in the test with Botrytis cinerea [6] amounted to 1.1 mm. Besides, the “Pc: number of nodules per plant” value with Pratylenchus coffeae was found to be 2.

As for `O=C(c1cnc(N2CCN(n3cccc3)CC2)nc1)N1CC2CC(O)C(O)CC2C1` (stereo not shown) [IIIK, 2-({2-[4-(1H-pyrrol-1-yl)piperazin-1-yl]pyrimidin-5-yl}carbonyl)-octahydro-1H-isoindole-5,6-diol], the “Pp-Nt: percentage of mortality” value in the test on Phytophthora parasitica is listed as 0%. In addition, the “Rs: number of nodules per plant” value in the test with Radopholus similis is 0. Moreover, the “Mi: number of nodules per plant” value with Meloidogyne incognita worked out at 0. Besides, the “Rs-Nt: percentage of mortality” value in the test with Rhizoctonia solani [1] was 0%. The “Bc-Nt: mean” value in the test on Botrytis cinerea [2] was 0.9 mm. Further, the “Titers of the bacterium” value is reported as 635 copies per reaction in test [3] (0.001 μM); 0 copies per reaction in test [3] (0.01 μM); 3 copies per reaction in [3] (1 μM); 65 copies per reaction in test [3] (5 μM); 8420 copies per reaction in test [3] (10 μM). Further, the “Rs-SI: percentage of mortality” value in the test on Rhizoctonia solani [4] was 2%. Besides, the “Bc-SI: mean” value in the test with Botrytis cinerea [5] is listed as 0.8 mm. In addition, the “As-SI: percentage of leaves” value in the test on Alternaria solani is listed as 8%. Further, in the test on Nocardia sp, the “N-Nt: percentage of mortality” value was 1%. Moreover, the “Bc-At: mean” value with Botrytis cinerea [6] was 0.5 mm. In addition, the “Pc: number of nodules per plant” value in the test on Pratylenchus coffeae was 14.
